Data on nine compounds can be found in patent US5804593A, “α-Amino sulfonyl hydroxamic acids as matrix metalloproteinase inhibitors” (Pharmacia & Upjohn Company, priority 1997, dated 1998).

The structures appear in SMILES notation. pKi: −log10 of the molar value.

This assay concerns the target Gelatinase. The experiment in a line: particle concentration fluorescence assay of MMP inhibition in vitro. The assay is classed as biochemical. Particulars: fluorescein/biotin-labelled substrate, avidin-coated particles, room temperature, pH 7.5. As for the experimental part: Inhibitory activity is evaluated in one or more of the MMP enzymes (stromelysin, gelatinase, and collagenase) in vitro using particle concentration fluorescence assay. An inhibitor binds to MMP enzymes which prevents the degradation of a substrate by stromelysin, gelatinase, or collagenase. The substrate has attached to it a fluorescein and a biotin moiety. The intact substrate then binds to an avidin-coated particle via the biotin moiety. Once the particle is washed and dried, a fluorescent signal is generated since the fluorescent group is attached to the particle. Without an inhibitor present, the substrate is degraded by MMP enzymes and the fluorescein group is removed, therefore, no fluorescent signal can be detected. Testing compounds are dissolved in DMSO to the desired concentration, then the solutions are diluted to 1:5 with MMP buffer (50 mM Tris-HCl, pH 7.5; 150 mM NaCl; 0.02% NaN3). Serial two-fold dilutions of each compound are prepared. A concentrated, activated enzyme solution is transferred into each plate of the testing compounds, and the mixture is incubated at room temperature for 15 minutes. Thawed MMP substrate is then added into all plates, and the plates are incubated in the dark for 1-3 hours at room temperature. At this point, the substrate mixture is mixed with 0.1% avidin-coated polystyrene particles. After 15 minutes, the fluorescence values are measured following filtration and washing of the beads. Ki values are then calculated.
Take `O=C(NO)[C@@H](Cc1c[nH]c2ccccc12)NS(=O)(=O)c1ccc(Br)cc1` [Example 5, N-hydroxy-2(R)-[(4-bromobenzenesulfonyl)amino]-3-(3-indolyl)-propanamide]: the pKi (in general, −log10 of the Ki, conventionally taken in molar units) was 8.59.

With `COc1ccc(S(=O)(=O)N[C@H](Cc2c[nH]c3ccccc23)C(=O)NO)cc1` [Example 1, N-hydroxy-2(R)-[(4-methoxybenzenesulfonyl)amino]-3-(3-indolyl)-propanamide], the pKi is 8.11.

Compound `COc1ccc(S(=O)(=O)N[C@@H](C(=O)NO)c2ccccc2)cc1` [Example 7, N-hydroxy-2(R)-[(4-methoxybenzenesulfonyl)amino]-2-phenyl acetamide] gave a pKi of 8.48.

For the compound `CC(C)[C@@H](NS(=O)(=O)c1ccccc1)C(=O)NO` [Example 9, N-hydroxy-2(R)-[(benzenesulfonyl)amino]-3-methyl butanamide], the negative logarithm of the Ki (pKi) was 7.09. Against the preceding compound, the pKi is 1.39 log units lower.

`CCCCCCCCS(=O)(=O)N[C@H](Cc1c[nH]c2ccccc12)C(=O)NO` [Example 6, N-hydroxy-2(R)-[(n-octylsulfonyl)amino]-3-(3-indolyl)-propanamide]: the negative logarithm of the Ki (pKi) was 7.92.

In turn, `O=C(NO)[C@@H](Cc1c[nH]c2ccccc12)NS(=O)(=O)c1ccccc1` [Example 2, N-hydroxy-2(R)-[(benzenesulfonyl)amino]-3-(3-indolyl)-propanamide] gave a negative-log Ki (pKi) of 7.85.

The compound `O=C(NO)[C@@H](Cc1c[nH]c2ccccc12)NS(=O)(=O)c1ccc(F)cc1` [Example 3, N-hydroxy-2(R)-[(4-fluorobenzenesulfonyl)-amino]-3-(3-indolyl)-propanamide] showed a pKi of 7.10. This pKi is 0.75 log units lower than that of the compound before.

Turning to `CCC(C)(C)C(NS(=O)(=O)c1ccc(OC)cc1)C(=O)NO` (stereo not drawn) [Example 10, N-Hydroxy-2-[(4-methoxybenzenesulfonyl)-amino]-3,3-dimethyl pentanamide], the pKi was 8.01.

Regarding `COc1ccc(S(=O)(=O)N[C@H](Cc2ccccc2)C(=O)NO)cc1` [Example 4, N-hydroxy-2(R)-[(4-methoxybenzenesulfonyl)-amino]-3-phenyl-propanamide], the pKi is 8.14. This pKi and that of the compound before are within 0.2 log units of each other.
